Results reported in patent US20230219898A1, “COMPOUNDS AND METHODS FOR BLOCKING APOPTOSIS AND INDUCING AUTOPHAGY” (President and Fellows of Harvard College, priority 2020, published 2023).
pIC50: −log10 of the molar value.

Legend:
[1] = system: MEFs; assay: RDA in MEFs induced by mTNFα and 5Z-7-Oxozeaenol, cell survival; assay type: cell-based, mouse; details: for protection against RDA models: 10 μM; for pIC50: Mus musculus, FIG. 5c, mTNFα 1 ng/mL, 5Z-7-Oxozeaenol 0.5 μM, 8 h, read-out: IC50 of inhibition of RDA
Description: The rates of cell death were measured in triplicate or quadruplicate in a 96-well or 384-well plate by using SYTOX Green Nucleic Acid Stain (Invitrogen) or ToxiLight Non-destructive Cytotoxicity BioAssay Kit (Lonza). The intensity of luminescence was determined in an EnSpire Multimode Plate Reader (PerkinElmer). Cytotoxicity is expressed as percentages of cell death per well after deducting the background signal in non-induced cells and compared to that of the maximal cell death with 100% Lysis Reagent. The rates of cell viability were determined by using CellTiter-Glo Luminescent Cell Viability Assay (Promega) following the manufacturer's protocol and the results are expressed as percentages of luminescence intensity per well after deducting the background signal in blank well and compared to that of the viability in the non-treated wells. Concentration of drugs used for inducing or inhibiting cell death, mTNFα: 1 ng/ml; 5Z-7-Oxozeaenol: 0.5 μM; Velcade: 50 nM; Apt-1/ICCB-19/ICCB-19i/Nec-1s: 10 μM.

[2] = system: H4-GFP-LC3 cells; assay: Autophagy induction, GFP-LC3 puncta and LC3II immunoblotting; assay type: cell-based; details: 10 μM, 6 h (zVAD.fmk 20 μM)
Description: Mean ±s.e.m. (n=5). One-way ANOVA, post hoc Dunnett's test.
Autophagy was determined by LC3II levels using immunoblotting. SE=shorter exposure, LE=longer exposure.
Autophagy was measured by LC3II induction and p62 reduction by immunoblotting. The levels of LC3II in cells treated with both Apt-1 and NH4Cl, the latter of which inhibits lysosome, were higher than that treated with either Apt-1 or NH4Cl alone. Thus, ICCB-19/Apt-1, but not ICCB-19i, induce autophagic flux. Mean ±s.e.m. from technical triplicates (n=3), representative of 3 independent experiments. Two-tailed t-test. **P=0.0037.
Levels of LC3II determined by immunoblotting.
Cells were seeded at 2.5×10^4 cells per well on poly-L-lysine coated glass cover slips and transfected as described. Cells were fixed in 4% paraformaldehyde, followed by permeabilization with 0.1% Triton X-100. Nuclei were stained using DAPI (Sigma). Cells expressing GFP or RFP-fusion proteins were imaged with an Olympus Fluoview FV1000 confocal microscope (Olympus) using a 40×objective. For GFP-LC3 and DsRed-FYVE puncta quantification, the average spot intensity in 1000 cells from each indicated sample was determined. Images were processed using ImageJ and Photoshop CC. Concentration of compounds used to induce or block autophagy: 10 μM (Apt-1, ICCB-19, ICCB-19i or Spautin-1), for 6 h or as indicated.

[3] = system: MEFs; assay: Necroptosis of MEFs induced by TNFα/5z7/zVAD; assay type: cell-based, mouse; details: 10 μM
Description: The concentrations of reagents used: mTNFα: 1 ng/mL; (5Z)-7-oxozeaenol: 0.5 μM; zVAD: 20 μM; ICCB-19: 10 μM; Apt-1: 10 μM; Nec-1s: 10 μM. Mean s.d. from technical triplicates (n=3), representative of 3 independent experiments.

[4] = system: Beclin 1/Vps34 kinase complex; assay: Vps34 lipid kinase assay on Beclin 1/Vps34 complex from treated HEK293T cells; assay type: cell-based; details: 10 μM, 6 h
Description: FIG. 6j Beclin 1/Vps34 kinase complex isolated from Flag-Beclin 1 transfected HEK293T cells treated with ICCB-19, Apt-1, or ICCB-19i (10 μM) for 6 h. PI3P kinase activity was measured by in vitro lipid kinase assay using ADP-Glo Kinase Assay Kit. Wortmannin (10 μM) was used as a control to inhibit Vps34 kinase activity. Mean±s.d. from technical quadruplicates (n=4), representative of 3 independent experiments. One-way ANOVA, post hoc Dunnett's tests. ***P=0.0003; ***P<0.001 (left to right).
WT mice (n=10, male, 8 weeks of age) were injected intravenously via the tail vein with mTNFα (9.5 μg/mouse) after an intraperitoneal injection of Apt-1 (20 mg/kg) 30 min before. Control mice (n=9) received an equal amount of vehicle 30 min before mTNFα challenge. Kaplan Meier survival curve was determined. 25. Vps34 lipid kinase assay HEK293T cells were transfected with Flag-Beclin 1 for 18 h and then treated with ICCB-19, ICCB-19i, Apt-1 (10 μM) for another 6 h. Flag-Beclin 1 was immunoprecipitated by anti-Flag to isolate Beclin 1/Vps34 complex. Immunoprecipitated beads were added with sonicated phosphatidylinositol (1 μl of 5 mg) and ATP (1 μl of 10 mM) in 30 μl reaction buffer (40 mM Tris (pH 7.5), 20 mM MgCl2, 1 mg/ml BSA) for 30 min at room temperature. […] The conversion of ATP into ADP levels was measured by an ADP-Glo Kinase Assay Kit (Promega) according to the manufacturer's instructions.

SMILES	protection against RDA models [1]	pIC50 [1]	induction of autophagy [2]	inhibition of necroptosis [3]	Vps34 lipid kinase activity [4]
CN1CCN=C1SC(C(=O)NC1CCCCCC1)c1ccccc1 (stereo not shown) [Compound 30]	protected against multiple RDA models	~6.00	effectively induced autophagy	partially inhibited	increased Vps34 lipid kinase activity
O=C(CSC1=NCCN1)NC1CCCCCC1 [ICCB-19]	protected against multiple RDA models	~6.00	effectively induced autophagy	partially inhibited	increased Vps34 lipid kinase activity
